IC50 data for 30 compounds are collected here from patent US12059420B2 (BRISTOL-MYERS SQUIBB COMPANY, priority 2018, dated 2024).

The target of this assay is T1, human IDO1 (Homo sapiens, UniProt P14902).
T1 construct: expressed in transfected cells
T1 sequence (P14902 whole entry): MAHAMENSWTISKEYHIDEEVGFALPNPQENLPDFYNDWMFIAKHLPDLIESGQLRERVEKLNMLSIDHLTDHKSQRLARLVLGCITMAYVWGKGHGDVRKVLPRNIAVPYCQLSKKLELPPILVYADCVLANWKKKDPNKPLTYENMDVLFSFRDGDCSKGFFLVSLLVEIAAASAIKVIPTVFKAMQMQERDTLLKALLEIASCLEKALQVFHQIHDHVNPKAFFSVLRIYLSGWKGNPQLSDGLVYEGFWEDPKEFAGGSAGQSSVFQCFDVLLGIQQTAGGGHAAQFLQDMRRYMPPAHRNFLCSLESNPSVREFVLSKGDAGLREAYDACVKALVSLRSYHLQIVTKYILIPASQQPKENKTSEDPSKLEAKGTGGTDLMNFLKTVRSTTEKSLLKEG
Kind of assay: IDO inhibition assay in HEK293 cells stably expressing human IDO1 (kynurenine production, Ehrlich reagent, absorbance 490 nm). In kind it is cell-based. The following applies: 20 hours incubation with compound, 500 nM reference standard = 100% inhibition, read-out: IDO1 HEK Human IC50. The protocol:
HEK293 cells were transfected with a pCDNA-based mammalian expression vector harboring human IDO1 cDNA (NM 002164.2) by electroporation. They were cultured in medium (DMEM with 10% FBS) containing 1 mg/ml G418 for two weeks. Clones of HEK293 cells that stably expressed human IDO1 protein were selected and expanded for IDO inhibition assay.
The human IDO1/HEK293 cells were seeded at 10,000 cells per 50 μL per well with RPMI/phenol red free media contains 10% FBS in a 384-well black wall clear bottom tissue culture plate (Matrix Technologies LLC) 100 nL of certain concentration of compound was then added to each well using ECHO liquid handling systems. The cells were incubated for 20 hours in 37° C. incubator with 5% CO2.
The compound treatments were stopped by adding trichloroacetic acid (Sigma-Aldrich) to a final concentration at 0.2%. The cell plate was further incubated at 50° C. for 30 minute. The equal volume supernatant (20 μL) and 0.2% (w/v) Ehrlich reagent (4-dimethylaminobenzaldehyde, Sigma-Aldrich) in glacial acetic acid were mixed in a new clear bottom 384-well plate. This plate was then incubated at RT for 30 minute. The absorbance at 490 nm was measured on Envision plate reader.
Compound IC50 values were calculated using the counts of 500 nM of a reference standard treatment as one hundred percent inhibition, and counts of no compound but DMSO treatment as zero percent inhibition.
Broadly, the IC50 is the concentration that gives 50% inhibition. Turning to “1-(2-(2-(1H-tetrazol-5-yl)phenyl)-6- (benzyl(propyl)amino)pyridin-4-yl)-3-(4- ethoxyphenyl)urea [Example 272]”, the IC50 turned out to be 129 nM.

Take “6-(2-(1H-tetrazol-5-yl)phenyl)-N2- benzyl-N4-(2-fluoropyridin-3-yl)- N2-isobutylpyridine-2,4-diamine, TFA [Example 54]”: the 50% inhibitory concentration (IC50) is 24.8 nM. Under `CCC(CC(=O)O)c1cc(Nc2ccc(Cl)cc2)cc(N(Cc2ccccc2)CC(C)C)n1` (racemic) [Example 245, 3-(6-(benzyl(isobutyl)amino)-4-((4-chlorophenyl)amino)pyridin-2-yl)pentanoic acid] stands 47.5 nM; under `CCC(CC(=O)O)c1cc(Nc2ccc(Cl)cc2)cc(N(Cc2ccc(F)cc2)C(C)C)n1` (racemic) [Example 246, 3-(4-((4-chlorophenyl)amino)-6-((4-fluorobenzyl)(isopropyl)amino)pyridin-2-yl)pentanoic acid], 4.7 nM; under `CCC(CC(=O)O)c1cc(Nc2ccc3nc(C)sc3c2)cc(N(Cc2ccccc2)CC(C)C)n1` (single isomer, unassigned) [Example 243, 3-(6-(benzyl(isobutyl)amino)-4-((2-methylbenzo [d]thiazol-6-yl)amino)pyridin-2-yl)pentanoic acid], 1610 nM.

As to `CCC(CC(=O)O)c1cc(NC(=O)Nc2ccc(C)cc2)cc(N(Cc2ccccc2)CC(C)C)n1` (single isomer, unassigned) [Example 244, 3-(6-(benzyl(isobutyl)amino)-4-(3-(p-tolyl)ureido)pyridin-2-yl)pentanoic acid], the half-maximal inhibitory concentration (IC50) is 109 nM. Consider `CCC(CC(=O)O)c1cc(Nc2ccc3nc(C)sc3c2)cc(N(Cc2ccc(F)cc2)C(C)C)n1` (single isomer, unassigned) [Example 247, 3-(6-((4-fluorobenzyl)(isopropyl)amino)-4-((2-methylbenzo [d]thiazol-6-yl)amino)pyridin-2-yl)pentanoic acid], for which the concentration for half-maximal inhibition (IC50) was found to be 11.1 nM. As to `CCC(CC(=O)O)c1cc(Nc2ccc(Cl)cc2)cc(N(Cc2ccc(F)cc2)CC(C)C)n1` (single isomer, unassigned) [Example 248, 3-(4-((4-chlorophenyl)amino)-6-((4-fluorobenzyl)(isobutyl)amino)pyridin-2-yl)pentanoic acid], the IC50 worked out at 217 nM. Turning to `CCC(CC(=O)O)c1cc(Nc2ccc3nc(C)sc3c2)cc(N(Cc2ccc(F)cc2)CC(C)C)n1` (single isomer, unassigned) [Example 249, 3-(6-((4-fluorobenzyl)(isobutyl)amino)-4-((2-methylbenzo [d]thiazol-6-yl)amino)pyridin-2-yl)pentanoic acid], the IC50 was 934 nM. Consider `CCC(CC(=O)O)c1cc(NC(=O)Nc2ccc(C)cc2)cc(N(Cc2ccc(F)cc2)CC(C)C)n1` (single isomer, unassigned) [Example 250, 3-(6-((4-fluorobenzyl)(isobutyl)amino)-4-(3-(p-tolyl)ureido)pyridin-2-yl)pentanoic acid], for which the IC50 was determined as 156 nM.

For `CCN(Cc1ccccc1)c1cc(NC(=O)Cc2ccc(C)cc2)cc(-c2ccccc2-c2nnn[nH]2)n1` [Example 1, N-(2-(2-(1H-tetrazol-5-yl)phenyl)-6-(benzyl(ethyl)amino)pyridin-4-yl)-2-(p-tolyl)acetamide], the IC50 came to 45.4 nM. In the case of `Cc1ccc(NC(=O)Nc2cc(-c3ccccc3-c3nnn[nH]3)nc(N(CC(C)C)C3CCCCC3)n2)cc1` [Example 2, 1-(6-(2-(1H-tetrazol-5-yl)phenyl)-2-(cyclohexyl(isobutyl)amino)pyrimidin-4-yl)-3-(p-tolyl)urea], the IC50 was 1040 nM.

With `Cc1ccc(CC(=O)Nc2cc(-c3ccccc3-c3nnn[nH]3)nc(N(CC(C)C)C3CCCCC3)n2)cc1` [Example 3, N-(6-(2-(1H-tetrazol-5-yl)phenyl)-2-(cyclohexyl(isobutyl)amino)pyrimidin-4-yl)-2-(p-tolyl)acetamide], the half-inhibitory concentration (IC50) amounted to 26.3 nM. For the compound `CCN(Cc1ccccc1)c1nc(NC(=O)Nc2ccc(C)cc2)cc(-c2ccccc2-c2nnn[nH]2)n1` [Example 4, 1-(6-(2-(1H-tetrazol-5-yl)phenyl)-2-(benzyl(ethyl)amino)pyrimidin-4-yl)-3-(p-tolyl)urea], the concentration for half-maximal inhibition (IC50) was 952 nM.

Consider `CCN(Cc1ccccc1)c1nc(NC(=O)Cc2ccc(C)cc2)cc(-c2ccccc2-c2nnn[nH]2)n1` [Example 7, N-(6-(2-(1H-tetrazol-5-yl)phenyl)-2-(benzyl(ethyl)amino)pyrimidin-4-yl)-2-(p-tolyl)acetamide], for which the IC50 came to 89 nM. `Cc1ccc(CC(=O)Nc2cc(-c3ccccc3-c3nnn[nH]3)nc(N(Cc3ccccc3)CC(C)C)n2)cc1` [Example 8, N-(6-(2-(1H-tetrazol-5-yl)phenyl)-2-(benzyl(isobutyl)amino)pyrimidin-4-yl)-2-(p-tolyl)acetamide]: the IC50 was determined as 8.5 nM. As for `Cc1ccc(C(=O)Nc2cc(-c3ccccc3-c3nnn[nH]3)nc(N(Cc3ccccc3)CC(C)C)n2)c(F)c1` [Example 9, N-(6-(2-(1H-tetrazol-5-yl)phenyl)-2-(benzyl(isobutyl)amino)pyrimidin-4-yl)-2-fluoro-4-methylbenzamide], the IC50 was found to be 74 nM.

In the case of `Cc1ccc(NC(=O)Nc2cc(-c3ccccc3-c3nnn[nH]3)nc(N(Cc3ccccc3)CC(C)C)n2)cc1` [Example 10, 1-(6-(2-(1H-tetrazol-5-yl)phenyl)-2-(benzyl(isobutyl)amino)pyrimidin-4-yl)-3-(p-tolyl)urea], the concentration for half-maximal inhibition (IC50) was found to be 404 nM.

In the case of `Cc1ccc(CC(=O)Nc2cc(-c3ccccc3-c3nnn[nH]3)nc(N(Cc3ccccc3)CC(C)C)n2)c(F)c1` [Example 11, N-(6-(2-(1H-tetrazol-5-yl)phenyl)-2-(benzyl(isobutyl)amino)pyrimidin-4-yl)-2-(2-fluoro-4-methylphenyl)acetamide], the IC50 turned out to be 18.1 nM. Consider `CCCN(Cc1ccccc1)c1cc(NC(=O)Nc2ccc(Cl)cc2F)cc(-c2ccccc2-c2noc(=O)[nH]2)n1` [Example 12, 1-(2-(benzyl(propyl)amino)-6-(2-(5-oxo-4,5-dihydro-1,2,4-oxadiazol-3-yl)phenyl)pyridin-4-yl)-3-(4-chloro-2-fluorophenyl)urea], for which the 50% inhibitory concentration (IC50) was determined as 7 nM. Consider `CCCN(Cc1ccc(F)cc1)c1cc(NC(=O)Nc2ccc(Cl)cc2F)cc(-c2ccccc2-c2noc(=O)[nH]2)n1` [Example 13, 1-(4-chloro-2-fluorophenyl)-3-(2-((4-fluorobenzyl)(propyl)amino)-6-(2-(5-oxo-4,5-dihydro-1,2,4-oxadiazol-3-yl)phenyl)pyridin-4-yl)urea], for which the half-maximal inhibitory concentration (IC50) worked out at 13.2 nM.

For `CCCN(Cc1ccccc1)c1cc(NC(=O)Nc2ccc(C)cc2)cc(-c2ccccc2-c2nsc(=O)[nH]2)n1` [Example 14, 1-(2-(benzyl(propyl)amino)-6-(2-(5-oxo-4,5-dihydro-1,2,4-thiadiazol-3-yl)phenyl)pyridin-4-yl)-3-(p-tolyl)urea], the half-inhibitory concentration (IC50) was 181 nM. `CCCN(Cc1ccccc1)c1cc(NC(=O)Cc2ccc(C)cc2)cc(-c2ccccc2C(=O)O)n1` [Example 17, 2-(6-(benzyl(propyl)amino)-4-(2-(p-tolyl)acetamido)pyridin-2-yl)benzoic acid]: the IC50 was 161 nM. Turning to `CCCN(Cc1ccccc1)c1cc(NC(=O)Nc2ccc(C)cc2)cc(-c2ccccc2C(=O)NS(=O)(=O)N2CCN(C)CC2)n1` [Example 18, 2-(6-(benzyl(propyl)amino)-4-(3-(p-tolyl)ureido)pyridin-2-yl)-N-((4-methylpiperazin-1-yl)sulfonyl)benzamide], the IC50 worked out at 2430 nM. Consider `CCCN(Cc1ccccc1)c1cc(NC(=O)Cc2ccc(C)cc2)cc(-c2ccccc2C(=O)NS(=O)(=O)C2CC2)n1` [Example 19, 2-(6-(benzyl(propyl)amino)-4-(2-(p-tolyl)acetamido)pyridin-2-yl)-N-(cyclopropylsulfonyl)benzamide], for which the half-inhibitory concentration (IC50) was determined as 485 nM.

For the compound `CCCN(Cc1ccccc1)c1cc(NC(=O)Nc2ccc(C)cc2)cc(-c2ccccc2C(=O)NS(=O)(=O)C2CC2)n1` [Example 20, 2-(6-(benzyl(propyl)amino)-4-(3-(p-tolyl)ureido)pyridin-2-yl)-N-(cyclopropylsulfonyl)benzamide], the half-inhibitory concentration (IC50) worked out at 594 nM. `CCCN(Cc1ccccc1)c1cc(NC(=O)Cc2ccc(C)cc2)cc(-c2ccccc2C(=O)NS(C)(=O)=O)n1` [Example 21, 2-(6-(benzyl(propyl)amino)-4-(2-(p-tolyl)acetamido)pyridin-2-yl)-N-(methylsulfonyl)benzamide]: the IC50 was found to be 328 nM. Take `Cc1ccc(CC(=O)Nc2cc(-c3ccccc3-c3nnn[nH]3)nc(N(Cc3ccccc3)CC3CC3)n2)cc1` [Example 22, N-(6-(2-(1H-tetrazol-5-yl)phenyl)-2-(benzyl(cyclopropylmethyl)amino)pyrimidin-4-yl)-2-(p-tolyl)acetamide]: the concentration for half-maximal inhibition (IC50) is 32.4 nM. Consider `CCCN(Cc1ccccc1)c1nc(NC(=O)Cc2ccc(C)cc2)cc(-c2ccccc2-c2nnn[nH]2)n1` [Example 23, N-(6-(2-(1H-tetrazol-5-yl)phenyl)-2-(benzyl(propyl)amino)pyrimidin-4-yl)-2-(p-tolyl)acetamide], for which the half-maximal inhibitory concentration (IC50) is 16.2 nM. Turning to `CCCN(Cc1ccccc1)c1cc(NC(=O)Nc2ccc(C)cc2)cc(-c2ccccc2C(=O)NS(C)(=O)=O)n1` [Example 24, 2-(6-(benzyl(propyl)amino)-4-(3-(p-tolyl)ureido)pyridin-2-yl)-N-(methylsulfonyl)benzamide], the IC50 stood at 256 nM.
